22 molecules from patent publication US20100204203A1, “Chemical Compounds 637: Pyridopyrimidinediones as PDE4 Inhibitors” (priority 2007, published 2010) can be followed below.

SMILES strings stand for the structures.

Sequence of recombinant Human Phosphodiesterase B2 (PDE4B2) (Q07343 1-564 isoform Q07343-2): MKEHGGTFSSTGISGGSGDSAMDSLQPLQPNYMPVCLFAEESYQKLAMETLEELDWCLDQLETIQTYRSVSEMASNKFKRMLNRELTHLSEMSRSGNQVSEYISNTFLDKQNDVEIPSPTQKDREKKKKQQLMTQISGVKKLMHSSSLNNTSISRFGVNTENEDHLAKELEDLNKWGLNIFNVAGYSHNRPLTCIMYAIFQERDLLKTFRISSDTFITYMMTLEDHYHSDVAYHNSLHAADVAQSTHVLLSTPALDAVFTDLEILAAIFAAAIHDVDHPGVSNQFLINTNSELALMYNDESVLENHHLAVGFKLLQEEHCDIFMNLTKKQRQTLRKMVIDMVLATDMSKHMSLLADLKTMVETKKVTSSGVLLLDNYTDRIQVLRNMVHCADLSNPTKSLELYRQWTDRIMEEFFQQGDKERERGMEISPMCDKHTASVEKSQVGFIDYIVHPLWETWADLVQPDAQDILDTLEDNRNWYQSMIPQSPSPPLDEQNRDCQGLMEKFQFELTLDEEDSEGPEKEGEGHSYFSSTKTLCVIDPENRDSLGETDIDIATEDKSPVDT

The assay deals with recombinant Human Phosphodiesterase B2 (PDE4B2) (Homo sapiens, UniProt Q07343). Put plainly: Human Phosphodiesterase B2 Radiometric Assay (yttrium silicate SPA beads, [3H]cyclic AMP). It is filed as biochemical. Conditions: recombinant human PDE4B2, radiometric SPA assay, 8 nM [3H]cyclic AMP; read-out: PDE4B2 pIC50 (converted). In short, it runs like this:
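Read-out is scintillation proximity: yttrium silicate beads (with 18 mM ZnSO4, added to stop the reaction) bind 5′AMP formed from 8 nM [3H]cAMP over 20 min. Beforehand, compound and 0.1 mg/mL enzyme were preincubated 30 min at 30 °C in pH 7.5 HEPES buffer with MgCl2, EGTA and Brij 35; pIC50 values were curve-fitted.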
For the molecule `O=c1c2cc(F)cnc2n(-c2cccc(-c3ccc(O)cc3CN3CCOCC3)c2)c(=O)n1[C@H]1CC[C@@H](NCc2ccc(Cl)cc2)CC1` [Example 281, 3-{cis-4-{(4-chlorobenzyl)amino]cyclohexyl}-6-fluoro-1-[4′-hydroxy-2′-(morpholin-4-ylmethyl)biphenyl-3-yl]pyrido[2,3-d]pyrimidine-2,4(1H,3H)-dione], the IC50 was 1000 pM. For `CN(Cc1ccc(-c2cccc(-n3c(=O)n([C@H]4CC[C@@H](NC(=O)C5(N(C)C)CC5)CC4)c(=O)c4cc(F)cnc43)c2)cc1)C(C)(C)C` [Example 207, N-{cis-4-[1-(4′-{[tert-butyl(methyl)amino]methyl}biphenyl-3-yl)-6-fluoro-2,4-dioxo-1,4-dihydropyrido[2,3-d]pyrimidin-3(2H)-yl]cyclohexyl}-1-(dimethylamino)cyclopropanecarboxamide], the IC50 was 316 pM. For the molecule `O=C(N[C@H]1CC[C@@H](n2c(=O)c3cc(F)cnc3n(CCc3ccccc3)c2=O)CC1)c1cn2cc(F)ccc2n1` [Example 38, 6-fluoro-N-{cis-4-[6-fluoro-2,4-dioxo-1-(2-phenylethyl)-1,4-dihydropyrido[2,3-d]pyrimidin-3(2H)-yl]cyclohexyl}imidazo[1,2-a]pyridine-2-carboxamide], the IC50 is 3160 pM. For `CC(C)(C)OC(=O)N1CCN(CC(=O)N[C@H]2CC[C@@H](n3c(=O)c4cc(F)cnc4n(-c4cccc(-c5ccccc5)c4)c3=O)CC2)CC1` [Example 105, tert-butyl 4-(2-{[cis-4-(1-biphenyl-3-yl-6-fluoro-2,4-dioxo-1,4-dihydropyrido[2,3-d]pyrimidin-3(2H)-yl)cyclohexyl]amino}-2-oxoethyl)piperazine-1-carboxylate], the IC50 is 25.1 pM. Take `CN(C)Cc1cc(O)ccc1-c1cccc(-n2c(=O)n([C@H]3CC[C@@H](NC(=O)c4cn5cc(F)ccc5n4)CC3)c(=O)c3cc(F)cnc32)c1` [Example 104, N-{cis-4-[1-{2′-[(dimethylamino)methyl]-4′-hydroxybiphenyl-3-yl}-6-fluoro-2,4-dioxo-1,4-dihydropyrido[2,3-d]pyrimidin-3(2H)-yl]cyclohexyl}-6-fluoroimidazo[1,2-a]pyridine-2-carboxamide]: the IC50 is 3.16 pM.

As to `CC(C)NCCCc1ccc(-c2cccc(-n3c(=O)n([C@H]4CC[C@@H](NC(=O)c5cn6cc(F)ccc6n5)CC4)c(=O)c4cc(F)cnc43)c2)cc1` [Example 95, 6-fluoro-N-{cis-4-[6-fluoro-1-{4′-[3-(isopropylamino)propyl]biphenyl-3-yl]-2,4-dioxo-1,4-dihydropyrido[2,3-d]pyrimidin-3(2H)-yl]cyclohexyl}imidazo[1,2-a]pyridine-2-carboxamide], the IC50 is 20 pM. For `Cc1cc(C(=O)N[C@H]2CC[C@@H](n3c(=O)c4cc(F)cnc4n(-c4cccc(-c5ccc(CN6CCC(N7CCCC7)CC6)cc5)c4)c3=O)CC2)nn1C` [Example 118, N-{cis-4-[6-fluoro-2,4-dioxo-1-{4′-[(4-pyrrolidin-1-ylpiperidin-1-yl)methyl]biphenyl-3-yl}-1,4-dihydropyrido[2,3-d]pyrimidin-3(2H)-yl]cyclohexyl}-1,5-dimethyl-1H-pyrazole-3-carboxamide], the IC50 was 25.1 pM. For `C[C@@H]1CN(Cc2ccc(-c3cccc(-n4c(=O)n([C@H]5CC[C@@H](NC(=O)c6cn7c(n6)CCCC7)CC5)c(=O)c5cc(F)cnc54)c3)cc2)C[C@H](C)O1` [Example 138, N-{cis-4-[1-(4′-{[(2R,6S)-2,6-dimethylmorpholin-4-yl]methyl}biphenyl-3-yl)-6-fluoro-2,4-dioxo-1,4-dihydxopyrido[2,3-d]pyrimidin-3(2H)-yl]cyclohexyl}-5,6,7,8-tetrahydroimidazo[1,2-a]pyridine-2-carboxamide] the value was 3.16 pM; for `N[C@H]1CC[C@@H](n2c(=O)c3cc(F)cnc3n(-c3cccc(-c4ccccc4CN4CCOCC4)c3)c2=O)CC1` [Example 46, 3-(cis-4-aminocyclohexyl)-6-fluoro-1-[2′-(morpholin-4-ylmethyl)biphenyl-3-yl]pyrido[2,3-d]pyrimidine-2,4(1H,3H)-dione], 2000 pM; for `CC(C)N(CCO)Cc1ccc(-c2cccc(-n3c(=O)n([C@H]4CC[C@@H](NC(=O)c5cn6c(n5)CCCC6)CC4)c(=O)c4cc(F)cnc43)c2)cc1` [Example 121, N-{cis-4-[6-fluoro-1-(4′-{[(2-hydroxyethyl)(isopropyl)amino]methyl}biphenyl-3-yl)-2,4-dioxo-1,4-dihydropyrido[2,3-d]pyrimidin-3(2H)-yl]cyclohexyl}-5,6,7,8-tetrahydroimidazo[1,2-a]pyridine-2-carboxamide], 158 pM. Take `O=c1c2cc(F)cnc2n(-c2cccc(-c3ccc(O)cc3CN3CCOCC3)c2)c(=O)n1[C@H]1CC[C@@H](NCc2cccc(F)c2O)CC1` [Example 280, 6-fluoro-3-{cis-4-[(3-fluoro-2-hydroxybenzyl)amino]cyclohexyl}-1-[4′-hydroxy-2′-(morpholin-4-ylmethyl)biphenyl-3-yl]pyrido[2,3-d]pyrimidine-2,4(1H,3H)-dione]: the IC50 was 794 pM. For `Cc1cc(C(=O)N[C@H]2CC[C@@H](n3c(=O)c4cc(F)cnc4n(-c4cccc(-c5ccc(CN(C)C(C)(C)C)cc5)c4)c3=O)CC2)nn1C` [Example 131, N-{cis-4-[1-(4′-{[tert-butyl(methyl)amino]methyl}biphenyl-3-yl)-6-fluoro-2,4-dioxo-1,4-dihydropyrido[2,3-d]pyrimidin-3(2H)-yl]cyclohexyl}-1,5-dimethyl-1H-pyrazole-3-carboxamide] the value was 126 pM. With `CCCCc1ccc(C(=O)N[C@H]2CC[C@@H](n3c(=O)c4cc(F)cnc4n(-c4cccc(-c5ccc(CN6CCCNCC6)cc5)c4)c3=O)CC2)nc1` [Example 351, 5-butyl-N-{cis-4-[1-[4′-(1,4-diazepan-1-ylmethyl)biphenyl-3-yl]-6-fluoro-2,4-dioxo-1,4-dihydropyrido[2,3-d]pyrimidin-3(2H)-yl]cyclohexyl}pyridine-2-carboxamide], the IC50 is 31.6 pM. In the case of `C[C@@H]1CN(Cc2ccc(-c3cccc(-n4c(=O)n([C@H]5CC[C@@H](NC(=O)c6cnc7ccccc7n6)CC5)c(=O)c5cc(F)cnc54)c3)cc2)C[C@H](C)N1` [Example 303, N-{cis-4-[1-(4′-{[(3R,5S)-3,5-dimethylpiperazin-1-yl]methyl}biphenyl-3-yl)-6-fluoro-2,4-dioxo-1,4-dihydropyrido[2,3-d]pyrimidin-3(2H)-yl]cyclohexyl} quinoxaline-2-carboxamide], the IC50 is 20 pM.

Turning to `CC(C)[C@H](N)C(=O)N[C@H]1CC[C@@H](n2c(=O)c3cc(F)cnc3n(-c3cccc(-c4ccc(CN5CCCN(C)CC5)cc4)c3)c2=O)CC1` [Example 314, N-{cis-4-[6-fluoro-1-{4′-[(4-methyl-1,4-diazepan-1-yl)methyl]biphenyl-3-yl}-2,4-dioxo-1,4-dihydropyrido[2,3-d]pyrimidin-3(2H)-yl]cyclohexyl}-L-valinamide], the IC50 was 398 pM. Take `Cc1cccc2nc(C(=O)N[C@H]3CC[C@@H](n4c(=O)c5cc(F)cnc5n(-c5cccc(-c6ccc(CN7CCNCC7)cc6)c5)c4=O)CC3)cn12` [Example 111, N-{cis-4-[6-fluoro-2,4-dioxo-1-[4′-(piperazin-1-ylmethyl)biphenyl-3-yl]-1,4-dihydropyrido[2,3-d]pyrimidin-3(2H)-yl]cyclohexyl}-5-methylimidazo[1,2-a]pyridine-2-carboxamide]: the IC50 was 12.6 pM.

Consider `CN(Cc1cc(O)ccc1-c1cccc(-n2c(=O)n([C@H]3CC[C@@H](NCc4cn5cc(F)ccc5n4)CC3)c(=O)c3cc(F)cnc32)c1)CC1CC1` [Example 325], for which the IC50 is 2000 pM.

Take `CC(C)[C@@H](N)C(=O)N[C@H]1CC[C@@H](n2c(=O)c3cc(F)cnc3n(-c3cccc(-c4ccc(CN5CCCN(C)CC5)cc4)c3)c2=O)CC1` [Example 313, N-{cis-4-[6-fluoro-1-{4′-[(4-methyl-1,4-diazepan-1-yl)methyl]biphenyl-3-yl}-2,4-dioxo-1,4-dihydropyrido[2,3-d]pyrimidin-3(2H)-yl]cyclohexyl}-D-valinamide]: the IC50 is 398 pM. For the molecule `CC(=O)N1CCN(Cc2ccc(-c3cccc(-n4c(=O)n([C@H]5CC[C@@H](NC(=O)c6cn7c(n6)CCCC7)CC5)c(=O)c5cc(F)cnc54)c3)cc2)CC1` [Example 218, N-{cis-4-[1-{4′-[(4-acetylpiperazin-1-yl)methyl]biphenyl-3-yl}-6-fluoro-2,4-dioxo-1,4-dihydropyrido[2,3-d]pyrimidin-3(2H)-yl]cyclohexyl}-5,6,7,8-tetrahydroimidazo[1,2-a]pyridine-2-carboxamide], the IC50 is 6.31 pM.

Turning to `CC(C)N1CCN(Cc2ccc(-c3cccc(-n4c(=O)n([C@H]5CC[C@@H](NC(=O)c6nccn6C)CC5)c(=O)c5cc(F)cnc54)c3)cc2)CC1` [Example 239, N-{cis-4-[6-fluoro-1-{4′-[(4-isopropylpiperazin-1-yl)methyl]biphenyl-3-yl}-2,4-dioxo-1,4-di-hydropyrido[2,3-d]pyrimidin-3(2H)-yl]cyclohexyl}-1-methyl-1H-imidazole-2-carboxamide], the IC50 is 316 pM. For the molecule `Cc1cccc2nc(C(=O)N[C@H]3CC[C@@H](n4c(=O)c5cc(F)cnc5n(-c5cccc(-c6ccc(CN7CCCN(C)CC7)cc6)c5)c4=O)CC3)cn12` [Example 220, N-{cis-4-[6-fluoro-1-{4′-[(4-methyl-1,4-diazepan-1-yl)methyl]biphenyl-3-yl}-2,4-dioxo-1,4-dihydropyrido[2,3-d]pyrimidin-3(2H)-yl]cyclohexyl}-5-methylimidazo[1,2-a]pyridine-2-carboxamide], the IC50 is 7.94 pM. For `CCCCc1ccc(C(=O)N[C@H]2CC[C@@H](n3c(=O)c4cc(F)cnc4n(-c4cccc(-c5ccc(CN6C[C@@H](C)N[C@@H](C)C6)cc5)c4)c3=O)CC2)nc1` [Example 302, 5-butyl-N-{cis-4-[1-(4′-{[(3R,5S)-3,5-dimethylpiperazin-1-yl]methyl}biphenyl-3-yl)-6-fluoro-2,4-dioxo-1,4-dihydropyrido[2,3-d]pyrimidin-3(2H)-yl]cyclohexyl} pyridine-2-carboxamide], the IC50 was 100 pM.
